Earlier results on two compounds are cited in patent publication US6919359B2, “Azabicyclic-substituted-heteroaryl compounds for the treatment of disease” (Pfizer Inc, priority 2001, dated 2005).

One series has as its target T1, 5HT3R (Homo sapiens, UniProt P46098).
T1 sequence (P46098 24-478): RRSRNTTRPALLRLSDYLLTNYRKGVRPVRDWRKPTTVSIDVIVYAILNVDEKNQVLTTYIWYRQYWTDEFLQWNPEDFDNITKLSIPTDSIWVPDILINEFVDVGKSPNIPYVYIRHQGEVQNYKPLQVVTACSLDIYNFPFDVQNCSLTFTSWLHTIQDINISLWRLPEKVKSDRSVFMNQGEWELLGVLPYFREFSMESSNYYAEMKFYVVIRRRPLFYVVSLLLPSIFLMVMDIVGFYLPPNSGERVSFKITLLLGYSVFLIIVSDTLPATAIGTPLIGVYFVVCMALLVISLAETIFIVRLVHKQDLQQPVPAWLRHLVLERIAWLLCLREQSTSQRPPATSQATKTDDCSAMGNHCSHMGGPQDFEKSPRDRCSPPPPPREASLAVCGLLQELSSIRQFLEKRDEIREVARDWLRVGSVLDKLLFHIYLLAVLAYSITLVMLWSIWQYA

Another series addresses α7 nAChR (Homo sapiens, UniProt P36544).

α7 nAChR, sequence (P36544 23-502): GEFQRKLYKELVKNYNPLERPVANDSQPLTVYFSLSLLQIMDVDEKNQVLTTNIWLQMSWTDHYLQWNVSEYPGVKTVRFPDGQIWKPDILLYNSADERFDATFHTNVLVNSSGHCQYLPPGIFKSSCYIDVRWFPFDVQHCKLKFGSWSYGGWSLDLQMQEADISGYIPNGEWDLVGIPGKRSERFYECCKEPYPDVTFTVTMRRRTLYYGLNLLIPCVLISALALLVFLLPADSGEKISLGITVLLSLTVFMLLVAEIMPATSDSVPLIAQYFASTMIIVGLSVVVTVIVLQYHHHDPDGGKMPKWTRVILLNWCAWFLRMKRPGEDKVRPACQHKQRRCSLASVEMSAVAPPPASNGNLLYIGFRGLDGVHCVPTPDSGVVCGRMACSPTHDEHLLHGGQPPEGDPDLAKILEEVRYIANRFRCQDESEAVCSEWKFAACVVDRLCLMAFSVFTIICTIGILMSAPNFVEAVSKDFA

In the case of `COc1ccc(/C=C2\CCCN=C2c2cccnc2)c(OC)c1` [GTS-21], the “activity at the 5HT3R” value at 5HT3R was “little activity”.
Turning to `Cc1nccn1CC1CCc2c(c3ccccc3n2C)C1=O` (centres unmarked) [Ondansetron], on α7 nAChR, the “activity at the α7 nAChR” value was “little activity”.
